Values of other authors as cited in patent US20120082623A1, “SHH Regulation and Methods Thereof” (priority 2009, published 2012).

Test system: SVZ derived EGFR+ cells
Conditions: neurospheres, dose dependent manner; cited from earlier work

## NCCc1ccc(O)c(O)c1 [dopamine]
  proliferation of SVZ derived EGFR+ cells: increased the proliferation of SVZ derived EGFR+ cells
